Experimental data as given in patent publication US8685956B2, “Compositions and methods for reducing the risk of agent-induced liver toxicity” (The Board of Trustees of The University of Illinois, priority 2009, dated 2014).
Where two headings read alike, the source gives them in different places.

Tests used:
[1] = system: APAP-induced liver toxicity in inbred strains with intact or deficient Bhmt2 activity; assay: Strain-specific effect of SMM or SAM co-administration on APAP-induced liver toxicity; type: in vivo, mouse; settings: 3 hour after APAP
Method: The availability of two inbred strains with allelic variants that eliminate Bhmt2 enzyme activity enabled the hypothesis that Bhmt2 is a susceptibility factor for APAP-induced liver toxicity to be tested in vivo. The effect that co-administration of SAM or SMM, which act on sequential steps in the methionine/GSH biosynthesis pathway, had on APAP-induced liver toxicity in strains with intact or deficient Bhmt2 activity was analyzed.
Hepatic glutathione (GSH) and methionine levels and the serum ALT were measured 3 hour after APAP administration to inbred strains. The R and S in the lower panel indicate whether SMM or SAM co-administration should have a protective (Rescue) effect, or not have a beneficial (Susceptible) effect on APAP-induced liver toxicity, respectively.

[2] = system: APAP-induced hepatotoxicity; settings: cited from earlier work
Bhmt2 = target: T1, Bhmt2 (Homo sapiens, UniProt Q9H2M3); settings: Szegedi et al. 2008; cited from earlier work
T1 sequence (Q9H2M3 1-363): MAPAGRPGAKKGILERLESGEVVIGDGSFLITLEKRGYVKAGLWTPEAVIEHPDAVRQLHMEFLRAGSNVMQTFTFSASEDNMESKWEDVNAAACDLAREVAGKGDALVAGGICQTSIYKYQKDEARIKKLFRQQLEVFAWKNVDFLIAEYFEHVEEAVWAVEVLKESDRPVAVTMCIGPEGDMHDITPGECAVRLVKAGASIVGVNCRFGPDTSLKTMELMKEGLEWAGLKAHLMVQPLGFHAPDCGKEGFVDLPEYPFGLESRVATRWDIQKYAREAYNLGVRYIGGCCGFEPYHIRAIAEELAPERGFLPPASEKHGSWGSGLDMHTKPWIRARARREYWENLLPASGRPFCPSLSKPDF

APAP poisoning = settings: cited from earlier work
hepatic glutathione = settings: after a toxic dose; James et al. 2003; cited from earlier work
inbred mouse strains = assay: APAP-induced liver toxicity in a panel of inbred mouse strains (serum ALT activity); type: in vivo; settings: single 300 mg/kg intraperitoneal injection, 6 hour
Method: A panel of inbred mouse strains was studied using an integrated genetic, transcriptional and metabolomic approach in order to better characterize genetic factors affecting susceptibility to APAP-induced liver toxicity.
The liver toxic effect of APAP was assessed by measuring the serum alanine aminotransferase (ALT) activity after a single administration of toxic level (300 mg/kg, intraperitoneal injection) APAP.

C[S+](CC[C@H](N)C(=O)O)C[C@H]1O[C@@H](n2cnc3c(N)ncnc32)[C@H](O)[C@@H]1O (stereo partly drawn) [SAM, S-adenosylmethionine]
effect of co-administration on APAP-induced liver toxicity (hepatic GSH, methionine, serum ALT) ([1]; all strains): protective effect in all strains
hepatic GSH levels ([2]; C57BL/6J mice, APAP): preserve hepatic GSH levels
attenuation of APAP-induced hepatotoxicity ([2]; C57BL/6J mice): attenuate APAP-induced hepatotoxicity
attenuation of APAP-induced hepatotoxicity ([2]; previously shown): attenuate APAP-induced hepatotoxicity
Bhmt2 activity with the substance as methyl donor (Bhmt2): very low activity

CC(=O)N[C@@H](CS)C(=O)O [N-acetylcysteine]
tolerability (APAP poisoning; oral administration): poorly tolerated
antidote effect in severe and ongoing APAP poisoning (APAP poisoning; patients): effective antidote

C[S+](C)CC[C@H](N)C(=O)[O-] [SMM, S-methylmethionine]
effect of co-administration on APAP-induced liver toxicity (hepatic GSH, methionine, serum ALT) ([1]; strains with active Bhmt2 enzyme (Gly27 allele)): protective effect
effect of co-administration on APAP-induced liver toxicity (hepatic GSH, methionine, serum ALT) ([1]; strains with inactive (Ser27 allele) Bhmt2 enzyme): not in strains with inactive (Ser27 allele) enzyme
Bhmt2 activity with the substance as methyl donor (Bhmt2): specific methyltransferase

CSCC[C@H](N)C(=O)O [methionine]
attenuation of APAP-induced hepatotoxicity ([2]; previously shown): attenuate APAP-induced hepatotoxicity

CC(=O)Nc1ccc(O)cc1 [APAP, Acetaminophen]
depletion of hepatic glutathione (hepatic glutathione): ≤ 90%
liver injury (serum ALT activity) (inbred mouse strains; SJL/J mice): resistant phenotype
liver injury (serum alanine aminotransferase (ALT) activity) (inbred mouse strains; all strains other than SJL/J): Significant liver injury

C[N+](C)(C)CC(=O)O [betaine]
Bhmt2 activity with the substance as methyl donor (Bhmt2): cannot use betaine as the methyl donor
